Assay results taken from publication PMC9863987, “Identification of Aryl Polyamines Derivatives as Anti-Trypanosoma cruzi Agents Targeting Iron Superoxide Dismutase” (Pharmaceutics, 2022).

Experiments:
[1] = tested on: T. cruzi Arequipa strain amastigotes; test: Screening against intracellular amastigotes in Vero cells, Arequipa strain (Giemsa counting); format: cell-based, Trypanosoma cruzi
Procedure: (§1) TINF/CH/1956/Tulahuen, DTU VI [26]—were grown at 28 °C in Gibco® RPMI 1640 Medium supplemented as previously reported, and used for in vitro screening. Trypanocidal activity against amastigotes was tested as previously reported. In brief, bloodstream trypomastigotes (BTs), obtained by cardiac puncture from infected BALB/c mice, were used to infect 1 × 10^4 Vero cells·well^−1 in 24-well plates with rounded coverslips at a multiplicity of infection (MOI) ratio of 10:1. After 24 h of infection, non-internalized trypomastigotes were washed and the infected cells were treated by adding the compounds in serial dilutions from 50 to 0.5 µM in […] for 72 h. BZN and untreated growth controls were also included in triplicate. Later, the number of amastigotes and infected cells were determined in Giemsa stained preparations by analysing 500 host cells randomly distributed in microscopic fields. The trypanocidal activity was expressed as the IC50 using GraphPad Prism 6 software (version 6.07).

[2] = tested on: T. cruzi Arequipa strain trypomastigotes; test: Screening against bloodstream trypomastigotes, Arequipa strain (resazurin); format: cell-based, Trypanosoma cruzi; conditions: Trypanosoma cruzi; trypomastigotes; 24 h + 4 h resazurin; mean of three ± SD
[3] = tested on: T. cruzi SN3 strain amastigotes; test: Screening against intracellular amastigotes in Vero cells, SN3 strain (Giemsa counting); format: cell-based, Trypanosoma cruzi; conditions: Trypanosoma cruzi; amastigotes in Vero cells; 72 h; mean of three ± SD
Procedure: as §1

[4] = tested on: T. cruzi Tulahuen strain epimastigotes; test: Screening against extracellular epimastigotes, Tulahuen strain (resazurin); format: cell-based, Trypanosoma cruzi; conditions: Trypanosoma cruzi, TULAHUEN; epimastigotes; 48 h treatment + 24 h resazurin; mean of three ± SD; read-out: Activity IC50 T. cruzi Tulahuen Strain E
Procedure: Three different T. cruzi […] strains—MHOM/Pe/2011/Arequipa, discrete typing unit (DTU) V [26]; IRHOD/CO/2008/SN3, DTU I [27]; TINF/CH/1956/Tulahuen, DTU VI [26]—were grown at 28 °C in Gibco® RPMI 1640 Medium supplemented as previously reported, and used for in vitro screening.
Trypanocidal activity against epimastigotes was tested as previously reported. In brief, 5 × 10^5 mL^−1 epimastigotes culture medium were treated by adding the compounds in serial dilutions from 100 to 0.2 µM in 96-well plates (200 µL·well^−1) for 48 h. BZN and untreated growth control were also included in triplicate. Later, 20 μL of resazurin sodium salt (Sigma-Aldrich, St. Louis, MO, USA) was added, and the plates were incubated for another 24 h. Finally, the absorbance of the wells was measured at 570/600 nm and related to the control. The trypanocidal activity was expressed as the IC50 (inhibitory concentration 50) value using GraphPad Prism 6 software.

[5] = tested on: T. cruzi Tulahuen strain amastigotes; test: Screening against intracellular amastigotes in Vero cells, Tulahuen strain (Giemsa counting); format: cell-based, Trypanosoma cruzi; conditions: Trypanosoma cruzi, TULAHUEN; amastigotes in Vero cells; 72 h; mean of three ± SD
Procedure: as §1

[6] = tested on: T. cruzi Tulahuen strain trypomastigotes; test: Screening against bloodstream trypomastigotes, Tulahuen strain (resazurin); format: cell-based, Trypanosoma cruzi; conditions: Trypanosoma cruzi, TULAHUEN; trypomastigotes; 24 h + 4 h resazurin; mean of three ± SD
T. cruzi Arequipa strain [7] = test: Monitoring of acute parasitaemia by counting in infected BALB/c mice; format: in vivo, Trypanosoma cruzi; conditions: acute infection
Procedure: (§2) All animal work (Scheme 1) and maintenance was performed under RD53/2013 and approved by the Ethics Committee on Animal Experimentation (CEEA) of the University of Granada, Spain. Female BALB/c mice (aged 10–12 weeks and 20–22 g) were used in the subsequent in vivo assays.
(§3) Infection was carried out by intraperitoneal inoculation of 5 × 10^5 BTs of T. cruzi Arequipa strain per mouse in 0.2 mL PBS [26]. The infection was monitored and on the 10th day post-infection (dpi), when BTs were visible in the bloodstream, the infection was confirmed.
(§4) Mice were divided into four groups (n = 3 per group): 0, negative control group (uninfected and untreated mice); I, positive control group (infected and untreated mice); II, BZN group (mice infected and treated with BZN); III, 15 group (mice infected and treated with 15).
(§5) The treatment for mice treated in the acute and chronic CD began when the infection was confirmed (10th dpi) and was stablished that the animals had entered the chronic CD (75th dpi), respectively (Scheme 1). Compound 15 and BZN were orally administered for 5 consecutive days at a dose of 20 mg·Kg^−1·day^−1.
[…]. The fresh blood microscopic examination was performed from the 7th day until the day when parasitaemia was not detected (Scheme 1).

T. cruzi Arequipa strain [8] = test: Infection reactivation by cyclophosphamide immunosuppression in infected BALB/c mice; format: in vivo, Trypanosoma cruzi; conditions: oral 20 mg/Kg/day for 5 days, related to control group
T. cruzi Arequipa strain [9] = test: Nested amastigotes detection by PCR in nine target organs/tissues of infected BALB/c mice; format: in vivo, Trypanosoma cruzi; conditions: oral 20 mg/Kg/day for 5 days
Procedure: as §3, §4, §5
After CP-induced immunosuppression, the mice were euthanised using CO2 by exsanguination via cardiac puncture, and blood was collected. Then, 9 target organs/tissues were harvested: adipose, bone marrow, brain, oesophagus, heart, lung, muscle, spleen, and stomach. These organs/tissues were perfused with pre-warmed PBS to avoid contamination with BTs, and stored at −80 °C. In addition, spleens were weighed to assess splenomegaly.
DNA extraction of the target organs/tissues was performed using Wizard® Genomic DNA Purification Kit. DNA was subjected to amplification by PCR based on the sequence of the T. cruzi splice leader (SL) intergenic region using two published primers (TC and TC1) that allow the amplification of a 300 base pairs fragment in different biological samples. […]

[10] = Clinical analysis of heart, kidney and liver markers in serum of treated mice; format: in vivo, BALB/c mice; conditions: n = 3
Procedure: as §3, §4, §5
Blood samples were collected in several dpi (Scheme 1) and processed according the method previously reported to obtain serum. Serum samples were then aliquoted to ELISA test and clinical analysis.
Heart, kidney and liver markers were measured from blood in several dpi (Scheme 1) with Cromakit® as previously reported. Mean and standard deviations were calculated using the levels measured for different populations of sera (n = 15, n = 3), and the confidence interval were also calculated based on a confidence level of 95% (100 × (1 − α) = 100 × (1 − 0.05)).

[11] = tested on: epimastigotes of T. cruzi Arequipa strain; test: Mitochondrial membrane potential by flow cytometry (rhodamine 123); format: cell-based, Trypanosoma cruzi; conditions: compounds at IC25 concentrations, 72 h; KCN 10 mM, 40 min; mean of three ± SD
[12] = format: in vivo, BALB/c mice; conditions: oral 20 mg/Kg/day for 5 days; acute and chronic infections
Procedure: as §2, §3, §4, §5

[13] = treatment in the acute infection
[14] = treatment in acute phase, 16th dpi (2 days after treatment)
[15] = treatment in acute phase, necropsy day
[16] = treatment in chronic phase, 81th dpi (2 days after treatment)
[17] = treatment in chronic phase, necropsy day

## O=C(Cn1ccnc1[N+](=O)[O-])NCc1ccccc1 [BZN, benznidazole, reference compound]
[1]; 50 μM, 72 h of exposure
  number of amastigotes per Vero cell: practically zero
[1]; Trypanosoma cruzi, amastigotes in Vero cells, 72 h, mean of three ± SD
  IC50: 8.3 ± 0.7 µM
[2]
  IC50: 12.4 ± 1.1 µM
[3]
  IC50: 16.6 ± 1.4 µM
[4]
  IC50: 19.7 ± 1.7 µM
[5]
  IC50: 10 ± 0.8 µM
[6]
  IC50: 15.1 ± 1.3 µM
T. cruzi Arequipa strain [7]; oral 20 mg/Kg/day for 5 days from 10th dpi, vs untreated control
  parasitaemia reduction on the day of maximum parasitaemia: ~ 65%
T. cruzi Arequipa strain [7]; oral 20 mg/Kg/day for 5 days, control detectable up to 50 dpi
  parasitaemia undetectable, days before control mice: 3 days
T. cruzi Arequipa strain [8]; [13]
  reactivation of parasitaemia after immunosuppression: 75%
T. cruzi Arequipa strain [8]; treatment in the chronic infection (from 75th dpi)
  reactivation of parasitaemia after immunosuppression: 51%
T. cruzi Arequipa strain [9]; [13]
  clearance of nested parasites in target organs/tissues (parasite-free organs/tissues, PCR): 33%
T. cruzi Arequipa strain [9]; treatment in the chronic infection
  clearance of nested parasites in target organs/tissues (parasite-free organs/tissues, PCR): 56%
[10]; [14]
  ALP, variation over the range: ++ (20-30% increase/decrease over the range)
  ALT/GPT, variation over the range: ++++ (˃ 40% increase/decrease over the range)
  AST/GOT, variation over the range: ++++ (˃ 40% increase/decrease over the range)
  CK-MB, variation over the range: = (variation ≤ 10%)
  LDH, variation over the range: = (variation ≤ 10%)
  Total bilirubin, variation over the range: ++ (20-30% increase/decrease over the range)
  Urea, variation over the range: --- (30-40% increase/decrease over the range)
  Uric acid, variation over the range: ---- (˃ 40% increase/decrease over the range)
[10]; [15]
  ALP, variation over the range: = (variation ≤ 10%)
  ALT/GPT, variation over the range: = (variation ≤ 10%)
  AST/GOT, variation over the range: ++++ (˃ 40% increase/decrease over the range)
  CK-MB, variation over the range: = (variation ≤ 10%)
  LDH, variation over the range: = (variation ≤ 10%)
  Total bilirubin, variation over the range: + (10-20% increase/decrease over the range)
  Urea, variation over the range: --- (30-40% increase/decrease over the range)
  Uric acid, variation over the range: = (variation ≤ 10%)
[10]; [16]
  ALP, variation over the range: ++++ (˃ 40% increase/decrease over the range)
  ALT/GPT, variation over the range: ++ (20-30% increase/decrease over the range)
  AST/GOT, variation over the range: ++ (20-30% increase/decrease over the range)
  CK-MB, variation over the range: -- (20-30% increase/decrease over the range)
  LDH, variation over the range: --- (30-40% increase/decrease over the range)
  Total bilirubin, variation over the range: +++ (30-40% increase/decrease over the range)
  Urea, variation over the range: --- (30-40% increase/decrease over the range)
  Uric acid, variation over the range: ---- (˃ 40% increase/decrease over the range)
[10]; [17]
  ALP, variation over the range: ++ (20-30% increase/decrease over the range)
  ALT/GPT, variation over the range: = (variation ≤ 10%)
  AST/GOT, variation over the range: + (10-20% increase/decrease over the range)
  CK-MB, variation over the range: = (variation ≤ 10%)
  LDH, variation over the range: -- (20-30% increase/decrease over the range)
  Total bilirubin, variation over the range: ++ (20-30% increase/decrease over the range)
  Urea, variation over the range: --- (30-40% increase/decrease over the range)
  Uric acid, variation over the range: -- (20-30% increase/decrease over the range)
[11]
  Inhibition on mitochondrial membrane potential with respect to untreated epimastigotes: 35.4%
[12]
  death or body mass loss of treated mice: none of the mice died or lost more than 10% body mass
